Literature values in US20100069397A1, “SEXUAL DYSFUNCTION COMPOUNDS” (Pharmacia AB, priority 2002, published 2010).

Assays:
[1] = free base; per European Patent Application No. 0 960 621
[2] = dose of 1-3 mg, taken 0.5-1 h before sexual activity; per WO 00/40226

solubility in water [1] | SMILES | therapeutic effect in sexual dysfunction [2]
extremely low solubility in water | CCCc1nn(C)c2c(=O)[nH]c(-c3cc(S(=O)(=O)N4CCN(C)CC4)ccc3OCC)nc12 [sildenafil] | –
– | CN[C@@H]1Cc2cccc3[nH]c(=O)n(c23)C1.O=C(O)/C=C\C(=O)O [(R)-5,6-dihydro-5-(methylamino)-4H-imidazo[4,5-ij]-quinolin-2(1H)-one (Z)-2-butenedioate (1:1)] | therapeutically effective
